System: DNA crosslinks in mouse bone marrow cells
Assay: Detection of SJG-136-click in mouse bone marrow by confocal microscopy (click labelling of DNA crosslinks)
Assay type: in vivo
Conditions: mice treated 0.3 mg/kg, 45 minutes; for click-647 (Alexa Fluor 647 azide) signal observed by confocal imaging: sites of reticulation (DNA crosslinks): 10 μm bone marrow sections of femur/tibia, click-it solution with Alexa Fluor 647 azide, FIG. 1 middle column
Description: FIG. 1 represents confocal microscopy observations of samples of mice bone marrow in mouse femur tissues treated with 0.3 mg·kg^−1 of either SJG136 (top line of images) (corresponding to a compound outside of the invention) or SJG136-click (bottom line of images) (corresponding to the compound of formula (IV) according to the invention). The nucleus of the sample's cells are identified on the left column by DAPI staining. The middle column represents images obtained by exposing clickable 647 fluorophore (Alexa Fluor™ 647 azide, sold by the company Thermo Fisher) to the samples treated with SJG136 or SJG136-click to detect the SJG136 or SJG136-click. On the right column, observations from the left and middle column are merged. Some of the observable DNA crosslinking are indicated by white arrows in the middle and right cases of the bottom line.
Mice were treated with a compound of formula (IV) according to the invention (0,3 mg/kg) during 45 minutes.
The bone(s) (i.e. femur and tibia) were dissected from the mouse and surrounding muscle(s) were removed. Said bone(s) were immediately fixed with 4% ice-cold PFA solution for 24 hours at 4° C. in a 15 mL conical tube. The bone sample(s) were then washed three times with PBS. Each wash was carried out for 5 minutes at 4° C. with 7 mL of PBS under constant agitation.
A DCAL solution, containing 0.5 M of EDTA, was prepared by dissolving 186.1 g of EDTA in 800 mL of ddH2O with the addition of about 20 g of NaOH pellets to bring the mixture to a pH in the range of 7.4-7.6 by continuous stirring. The volume is adjusted to 1 L and the solution is filtered on a 0.5 μm filter.
A cryoprotectant (CPT) solution (1×) was also prepared by dissolving 200 g of sucrose and 20 g of polyvinylpyrrolidone (PVP) in 700 mL of PBS under constant stirring by a magnetic stirrer. The volume was then adjusted to 1 L and the solution was mixed until a homogeneous solution was obtained. […]

Compound | click-647 (Alexa Fluor 647 azide) signal observed by confocal imaging: sites of reticulation (DNA crosslinks) | localisation of click-647 light spots relative to DAPI-stained nuclei (merged image) (bone marrow sections, merge of DAPI and click-647 images, FIG. 1 right column)
C=C1C[C@H]2C=Nc3cc(OCCCOc4cc5c(cc4OC)C(=O)N4CC(=C)C[C@H]4C=N5)c(OC)cc3C(=O)N2C1 [SJG136, reference compound] | nothing is visible | 
C#CCC(COc1cc2c(cc1OC)C(=O)N1CC(=C)CC1C=N2)COc1cc2c(cc1OC)C(=O)N1CC(=C)CC1C=N2 (stereo not drawn) [SJG136-click, 8,8′-((2-(prop-2-yn-1-yl)propane-1,3-diyl)bis(oxy))bis(7-methoxy-2-methylene-2,3-dihydro-1H-benzo[e]pyrrolo[1,2-a][1,4]diazepin-5(11aH)-one)] | several light spots, clearly distinct one from the others | all the light spots observed are within the nucleus of cells

From patent US20240124938A1, “VISUAL DETECTION OF PBD INDUCED DNA CROSSLINKS” (INSERM (INSTITUT NATIONAL DE LA SANTÉ ET DE LA RECHERCHE …, priority 2019, published 2024)
